Values of other authors, collected in patent publication US20120191185A1, “OPHTHALMIC INTRAOCULAR LENS FOR PROMOTING HEALING” (priority 2011, published 2012).

What was measured:
[1] = system: posterior capsule opacification; settings: rabbits
[2] = subconjunctival administration
[3] = primates
corneal anterior stroma = settings: mammals, clinical setting

O=c1[nH]cc(F)c(=O)[nH]1 [5-fluorouracil]
effect on posterior capsule opacification [1]: reduces posterior capsule opacification | ocular complications [2]: corneal epithelial defects and other ocular complications

COc1cc2c(c(OC)c1OC)-c1ccc(OC)c(=O)cc1[C@@H](NC(C)=O)CC2 [colchicine]
toxic effect on the optic nerve [3]: temporary toxic effect on the optic nerve | inhibition of lens epithelial cell proliferation and migration (lens epithelial cell): potent inhibitor

platelet derived growth factor
corneal anterior stroma healing (corneal anterior stroma): accelerate corneal anterior stroma healing
